According to patent publication US20080318892A1, “METHODS AND FORMULATIONS FOR PROTECTING CELLS, AND FOR TREATING DISEASES AND CONDITIONS BY OPTIMIZING THE INTRACELLULAR CONCENTRATION OF NAD” (priority 2007, published 2008):

Legend:
HDAC = assay: Histone deacetylase (HDAC) assay in SMC lysates with [3H]-acetylated histone H4 peptide; assay type: biochemical, human
Procedure: HITC6 SMC's were stably transduced with pQXCIP-PURO or pQXCIP-PBEF-PURO and HDAC activity determined in cell lysates (25 μg of protein), using [^3H]histone H4 peptide as the substrate. The reactions were quenched by acid hydrolysis and catalytically released [^3H]-acetate was extracted in ethyl acetate.
Histone Deacetylase (HDAC) Assays were employed. Histone H4 peptide (Upstate) was labeled with [^3H]-acetyl Coenzyme A (ICN) using PCAF histone acetylase. Cell lysates were harvested using Passive Lysis Buffer (Promega) and 25 μg of protein was incubated at 37° C. for 6 hours with 50,000 cpm of [^3H]-acetyl histone and 1 mM PMSF in HDAC Assay Buffer (Upstate). Released [^3H]-acetate was extracted with ethyl acetate (31) and counted on a Beckman LS3801 scintillation counter.

PBEF = assay: Knockdown of PBEF by RNA interference: PBEF mRNA (real-time RT-PCR) and protein (Western blot); assay type: cell-based, human; conditions: HITC6 SMCs, retroviral hairpin siRNA
Procedure: (§1) Western Blot Analyses were employed to assay marker expression. Expression of PBEF and SMC differentiation markers was assessed by Western blot analysis with chemiluminescence detection, as described (29). Equal amounts of protein were resolved on 12% (for PBEF and α-tubulin), 9% (for smoothelin A and smoothelin B) and 6% (for caldesmon and vinculin-metavinculin) SDS-polyacrylamide gels and transferred PVDF membranes (Immobilon, Millipore). PBEF was detected using a polyclonal rabbit antibody against human PBEF (1857, 1:5000, kindly provided by Amgen). Monoclonal antibodies were used to detect heavy (h)-caldesmon (clone hHCD, 1:1000, Sigma), smoothelin isoforms A and B (clone MAB3242, 1:500, Chemicon), vinculin-metavinculin (clone VIN-11-5, 1:2000, Sigma), and α-tubulin (clone B-5-1-2; 1:16000, Sigma).
(§2) Knockdown of PBEF by RNA Interference was evaluated with a viral vector. PBEF knockdown was accomplished by infecting human SMC's with retrovirus containing sequences encoding hairpin siRNA fragments. Complementary oligodeoxynucleotides were synthesized, annealed, and inserted between the BamH1 and EcoR1 sites of the retroviral expression vector pSIREN-RetroQ. Three different targeting sequences were used, each consisting of 19 nucleotides starting at nucleotides 147, 384, and […] of the PBEF coding sequence (siRNA147 5′-GGAAGGTGAAATATGAGGA-3′; siRNA384 5′-ATGTTCTCTTCACGGTGGA-3′; siRNA1278 5′-AGGGCCGATTATCTTTACA-3′). Each sequence was separated by a 9-nucleotide noncomplementary spacer from the reverse complement of the same 19-nucleotide sequence. Blast search confirmed that only the PBEF gene was targeted. Control inserts contained the gene-specific 19-nucleotide sequence and hairpin loop sequence but not the antisense component. Infection of SMCs was performed as described above and cells were selected using 3 μg/ml puromycin for 48 hours.
Real-time RT-PCR was used to analyze nucleic acid evidence. RNA was harvested using RNeasy mini-column and reagents (Qiagen) and subjected to DNaseI treatment. Probe (5′-CAGTTGCTGATCCCA-3′) and flanking primers (5′-primer 5′-[…]-3′; 3′-primer 5′-[…]-3′) for Taqman real-time RT-PCR for PBEF were designed using Primer Express software (Applied Biosystems). Reactions were performed using an ABI-Prism 7900 Sequence Detection System (Applied Biosystems). Optimum signal was obtained with concentrations of 200 nM, 300 nM and 50 nM for the probe, 5′ primer, and 3′ primer, respectively. Standard curves were generated using RNA derived from human aortic SMCs, enabling correlation of the determined threshold cycle to transcript abundance. GAPDH transcript abundance was used as an endogenous RNA control (Assays on Demand Hs9999905, Applied Biosystems) to which PBEF transcript abundance was normalized.

HITC6 SMC's = assay: Survival, morphology and h-caldesmon expression of PBEF-knockdown SMCs; assay type: cell-based, human; conditions: for SMC morphology / SMC survival: retroviral hairpin siRNA
Procedure: as §1, §2
Microscopy and Image Analysis were used to measure cell robustness and function. Cell images were collected using a Zeiss Axiovert S100 microscope (Carl Zeiss Microimaging Inc.) equipped with Hoffman Modulation Contrast Plan objectives and TCT condenser (Modulation Optics Inc.), cooled QICAM 12-bit Mono Fast 1394 camera (QImaging Inc.) and Northern Eclipse image analysis software (Empix Imaging Inc.). Histology images were acquired with an Olympus BX50 microscope with a BX-FLA illuminator, UPlanF1 objective lenses (Olympus Optical Co. Ltd.), cooled Retiga EXi Mono Fast 1394 camera (QImaging Inc.) and Northern Eclipse image analysis software. Linear image processing was done using Photoshop CS (Adobe Systems Inc.).

HITC6 SMCs [1] = assay: Senescence-associated beta-galactosidase activity / senescence-free survival; assay type: cell-based, human; conditions: 37th subculture
Procedure: Senescence-associated β-Galatosidase Activity Assay. SMCs on glass coverslips at approximately 70% confluence were fixed in 2% formaldehyde/0.2% glutaraldehyde in PBS for 3 minutes and incubated with X-gal-containing reaction mixture, as previously described (Dimri, 1995). Washed cells were stained with Hoechst 33258 (2.5 μg/ml) and the proportion of senescence-associated β-galactosidase (SA β-Gal)-positive cells quantified from 10 microscope fields of view (Olympus BX51, ×20 objective, approximately 1200 cells). Senescence-free survival was determined using Kaplan-Meier analysis of survival vs. replicative age.
Senescence-associated Beta-galactosidase Activity. Senescence-associated beta-galactosidase (SA-β-gal) activity was determined as previously described (Dimri et al, 1995). Briefly, SMCs were fixed in PBS containing 2% formaldehyde/0.2% glutaraldehyde for 3 min at room temperature. Fixed cells were then incubated for 4-6 h at 37° C. with SA-β-gal stain solution containing 150 mM NaCl, 2 mM MgCl, 40 mM citrate, 5 mM potassium ferrocyanide, 5 mM potassium ferricyanide, and 1 mg/ml of 5-bromo-4-chloro-3-indolyl-β-D-galactopyranoside (X-gal) (Invitrogen, Carlsbad, Calif., USA), at pH 6.0. SMCs were counterstained with 2.5 μg/ml Hoechst 33258 to detect cell nuclei. The proportion of SA-β-gal activity positive cells was quantified using light and fluorescence microscopy (Olympus BX51, Center Valley, Pa., USA).

HITC6 SMCs [2] = assay: Replicative lifespan (cumulative population doublings) of HITC6 SMCs; assay type: cell-based, human
Procedure: To quantify replication, cells were plated at 4500 cells/cm^2 and growth medium with 10% FBS was changed every two days until cells reached 90-95% confluence. Harvested cells were counted from triplicate plates and the number of population doublings was calculated based on: [log10(number of cells harvested)−log10(number of cells seeded)]/[…] (Fukuhara, 2005). Population growth curves were compared using both nonlinear regression and two-way analysis of variance.
Cell Culture. Experiments were performed using primary human SMCs and the HITC6 clonal SMC line, both derived from segments of human internal thoracic artery (Li et al., 1999; Li et al., 2001). SMCs were maintained at 37° C. with 5% CO2 and cultured in Medium 199 (Invitrogen, Carlsbad, Calif., USA) supplemented with 25 mM HEPES, 10% FBS, 1% penicillin/streptomycin, and 1% L-glutamine. Phoenix cells (distributed by ATCC, Manassas, Va., USA) were maintained at 37° C. with 5% CO2 and cultured in Dulbecco's modified Eagle's medium (Invitrogen, Carlsbad, Calif., USA). To quantify replication, cells were seeded at a density of 4500 cells/cm2 and population doublings were calculated using the following formula: […].

[3] = tested on: primary human vascular SMCs; assay: Replicative lifespan (cumulative population doublings) of primary SMCs; assay type: cell-based; conditions: SIRT1-overexpressing primary adult SMCs; p<0.01

With CC(NC(=O)c1ccccc1/N=C/c1c(O)ccc2ccccc12)c1ccccc1 (centres unmarked) [Sirtinol, sirtinol] the “HDAC activity in PBEF-overexpressing SMC's” value (HDAC; 50 μM sirtinol) was “significantly inhibited” and the “HDAC activity in control SMC's” value (HDAC; 50 μM sirtinol) was “more modest inhibition”.

“siRNA147: retrovirally expressed hairpin siRNA to PBEF, 19 nt from nucleotide 147: 5'-GGAAGGTGAAATATGAGGA-3' (hairpin with spacer and reverse complement)” was tested, and the “PBEF mRNA (real-time RT-PCR) vs non-silencing RNA control” value (PBEF) was “significant decrease”, the PBEF protein (PBEF) was “significant suppression” and the SMC morphology (HITC6 SMC's) was “short, truncated morphology”. The SMC survival (HITC6 SMC's) was “survived poorly”.

“siRNA384: retrovirally expressed hairpin siRNA to PBEF, 19 nt from nucleotide 384: 5'-ATGTTCTCTTCACGGTGGA-3' (hairpin with spacer and reverse complement)” was tested, and the “PBEF mRNA (real-time RT-PCR) vs non-silencing RNA control” value (PBEF) was “did not manifest a reduction”, the PBEF protein (PBEF) was “did not manifest a reduction” and the SMC morphology (HITC6 SMC's) was “maintained an elongated morphology”.

“siRNA1248: retrovirally expressed hairpin siRNA to PBEF, 19 nt from nucleotide 1248: 5'-AGGGCCGATTATCTTTACA-3' (hairpin with spacer and reverse complement)” was tested, and the “PBEF mRNA (real-time RT-PCR) vs non-silencing RNA control” value (PBEF) was “significant decrease”, the PBEF protein (PBEF) was “significant suppression” and the “h-caldesmon expression (Western blot)” value (HITC6 SMC's) was “reduced expression”. For the same molecule, the SMC morphology (HITC6 SMC's) was “short, truncated morphology” and the SMC survival (HITC6 SMC's) was “survived poorly”.

With trichostatin A the “HDAC activity in both control and PBEF-overexpressing SMC's” value (HDAC; 40 nM trichostatin A) was “substantially inhibited”.

B1: SIRT1 H363Y: dominant-negative form of SIRT1 (H363Y), retrovirally transduced (protein, UniProt Q96EB6 2-747, looked up, variant H363Y)
NAD-dependent protein …: ADEAALALQPGGSPSAAGADREAASSPAGEPLRKRPRRDGPGLERSPGEPGGAAPEREVPAAARGCPGAAAAALWREAEAEAAAAGGEQEAQATAAAGEGDNGPGLQGPSREPPLADNLYDEDDDDEGEEEEEAAAAAIGYRDNLLFGDEIITNGFHSCESDEEDRASHASSSDWTPRPRIGPYTFVQQHLMIGTDPRTILKDLLPETIPPPELDDMTLWQIVINILSEPPKRKKRKDINTIEDAVKLLQECKKIIVLTGAGVSVSCGIPDFRSRDGIYARLAVDFPDLPDPQAMFDIEYFRKDPRPFFKFAKEIYPGQFQPSLCHKFIALSDKEGKLLRNYTQNIDTLEQVAGIQRIIQCYGSFATASCLICKYKVDCEAVRGDIFNQVVPRCPRCPADEPLAIMKPEIVFFGENLPEQFHRAMKYDKDEVDLLIVIGSSLKVRPVALIPSSIPHEVPQILINREPLPHLHFDVELLGDCDVIINELCHRLGGEYAKLCCNPVKLSEITEKPPRTQKELAYLSELPPTPLHVSEDSSSPERTSPPDSSVIVTLLDQAAKSNDDLDVSESKGCMEEKPQEVQTSRNVESIAEQMENPDLKNVGSSTGEKNERTSVAGTVRKCWPNRVAKEQISRRLDGNQYLFLPPNRYIFHGAEVYSDSEDDVLSSSSCGSNSDSGTCQSPSLEEPMEDESEIEEFYNGLEDEPDVPERAGGAGFGTDGDDQEAINEAISVKQEVTDMNYPSNKS
B1 was tested, and the “relative increase in senescence” value (HITC6 SMCs [1]; dominant-negative SIRT1 co-expressed in PBEF-overexpressing SMCs) was 55±12%, the “relative increase in senescence” value (HITC6 SMCs [1]; vector-infected SMCs expressing SIRT1 H363Y) was 15±10% and the “additional population doublings conferred by Nampt” value (HITC6 SMCs [2]; SIRT1 H363Y allele co-expressed with Nampt, p=0.003) was 0.3±0.3 population doublings.

B2: SIRT1: NAD+-dependent deacetylase; tested by retroviral overexpression of human SIRT1 cDNA in SMCs (protein, UniProt Q96EB6 2-747, looked up)
NAD-dependent protein …: ADEAALALQPGGSPSAAGADREAASSPAGEPLRKRPRRDGPGLERSPGEPGGAAPEREVPAAARGCPGAAAAALWREAEAEAAAAGGEQEAQATAAAGEGDNGPGLQGPSREPPLADNLYDEDDDDEGEEEEEAAAAAIGYRDNLLFGDEIITNGFHSCESDEEDRASHASSSDWTPRPRIGPYTFVQQHLMIGTDPRTILKDLLPETIPPPELDDMTLWQIVINILSEPPKRKKRKDINTIEDAVKLLQECKKIIVLTGAGVSVSCGIPDFRSRDGIYARLAVDFPDLPDPQAMFDIEYFRKDPRPFFKFAKEIYPGQFQPSLCHKFIALSDKEGKLLRNYTQNIDTLEQVAGIQRIIQCHGSFATASCLICKYKVDCEAVRGDIFNQVVPRCPRCPADEPLAIMKPEIVFFGENLPEQFHRAMKYDKDEVDLLIVIGSSLKVRPVALIPSSIPHEVPQILINREPLPHLHFDVELLGDCDVIINELCHRLGGEYAKLCCNPVKLSEITEKPPRTQKELAYLSELPPTPLHVSEDSSSPERTSPPDSSVIVTLLDQAAKSNDDLDVSESKGCMEEKPQEVQTSRNVESIAEQMENPDLKNVGSSTGEKNERTSVAGTVRKCWPNRVAKEQISRRLDGNQYLFLPPNRYIFHGAEVYSDSEDDVLSSSSCGSNSDSGTCQSPSLEEPMEDESEIEEFYNGLEDEPDVPERAGGAGFGTDGDDQEAINEAISVKQEVTDMNYPSNKS
For B2, the “increase in cumulative population doublings vs vector infected SMCs” value [3] was 1.30±0.93 fold and the “increase in number of population doublings” value (HITC6 SMCs [2]; SIRT1-SMCs, clonal longer-lived human SMC line, p<0.05) was 1.17±0.03 fold.
